PubChem BioAssay (NCI)
Several values for one entry are separate records, joined by “and”; a condition that tells them apart may be missing. Equal entries are not always repeated.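 These data come from cells grown in 96-well plates and exposed to compound for 48 hours at five concentrations. GI50 is the concentration that inhibits growth by half. TGI denotes the concentration required for complete inhibition of growth.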

How the values were obtained:
Test in all cases: NCI-60 cell line screen, 48 h
T-47D breast = system: T-47D breast
DU-145 prostate = system: DU-145 prostate
SNB-75 CNS = system: SNB-75 CNS
MCF7 breast = system: MCF7 breast
MALME-3M melanoma = system: MALME-3M melanoma
HS 578T breast = system: HS 578T breast
UO-31 renal = system: UO-31 renal
HL-60(TB) leukemia = system: HL-60(TB) leukemia

| SMILES | GI50 (T-47D breast) [µM] | TGI (T-47D breast) [µM] | GI50 (DU-145 prostate) | TGI (DU-145 prostate) [µM] | GI50 (SNB-75 CNS) [µM] | TGI (SNB-75 CNS) [µM] | GI50 (MCF7 breast) [µM] | TGI (MCF7 breast) [µM] | GI50 (MALME-3M melanoma) [µM] | TGI (MALME-3M melanoma) [µM] | GI50 (HS 578T breast) [µM] | TGI (HS 578T breast) [µM] | GI50 (UO-31 renal) | TGI (UO-31 renal) [µM] | GI50 (HL-60(TB) leukemia) | TGI (HL-60(TB) leukemia) [µM] |
| --- | --- | --- | --- | --- | --- | --- | --- | --- | --- | --- | --- | --- | --- | --- | --- | --- |
| Cc1cc2[nH]c(=O)c3c4ccccc4cn3c2cc1C | 15.4 | 50 | 13.9 µM | 30.1 | 15.5 | 30.4 | 11.8 | > 100 | 22.2 | 37.5 | 25 | 59.9 | 14.6 µM | 28 |  |  |
| Cc1ccc2c(c1)C(C)Cc1c(Cl)ncnc1N2C (stereo not given) | 6.9 | 65 | 4.21 µM | 91.9 | 0.394 | 22.5 | 2.96 | 11.7 | 1.76 | 6.5 | 1.89 | 34 | 3.03 µM | 45.2 | 3.07 µM | 71.8 |
| CNC(=O)CC1NC(=O)c2csc(n2)-c2ccc(-c3nc(C4=NC(C(=O)N5CCCC5C(N)=O)CO4)cs3)nc2-c2csc(n2)-c2csc(n2)C(C(C)C)NC(=O)CNC(=O)c2csc(n2)C(C(C)C)NC(=O)c2nc1sc2C (stereo not given) | > 25 | > 25 | > 25 µM | > 25 | > 25 |  | < 0.001 |  |  | > 25 | < 0.001 |  | > 25 µM | > 25 | < 0.001 µM |  |
| CNCCNc1c2c(c(NCCNC)c3[nH]ccc13)C(=O)c1ccccc1C2=O | 11.4 | > 27 | 0.526 µM | 1.31 | 3.5 | 8.86 | 0.154 | 1.19 | 0.258 | 1.32 | 0.565 | 1.65 | 0.201 µM | 0.818 | 0.195 µM | 0.838 |
| O=C(O)C1C(C(=O)O)C23CC2(C(=O)O)C2(C(=O)O)CCC3=C3CCCC312 (stereo not given) |  | 53.5 |  | 34.1 |  | 93.5 |  | 63.3 |  | 15.2 |  | 7.8 |  | 33.2 |  | 18.3 |
| CCN1C(=O)N(c2ccccc2)C2NC(=S)N(/N=C/C=C/c3ccccc3)C21 (stereo not given) | 0.405 | > 100 | 0.444 µM | > 100 | > 100 | > 100 | 0.193 | > 100 | 2.83 | > 100 | 0.339 | > 100 | 0.499 µM | > 100 | 0.227 µM | 0.745 |
| O=P(CCCCP(=O)(c1ccccc1)c1ccccc1)(c1ccccc1)c1ccccc1.[Cl][Sn]([Cl])([c]1ccccc1)[c]1ccccc1 | 0.073 | 0.415 | 2 µM | 4.52 | 1.57 | 3.29 | 0.876 | 2.64 | 1.41 | 3.1 | 4.1 | > 50.6 | 1.68 µM | 3.19 | 2.04 µM | 6.61 |
| C=C1C(=O)O[C@H]2[C@H]1CCC(/C=N/c1ncc(Br)cc1N)=C\CC[C@@]1(C)O[C@@H]21 | 1.55 | 4.9 | 1.25 µM | 3.22 | 3.38 | 18 |  |  | 1.55 | 3.6 | 5.65 | 40.1 | 1.28 µM | 2.63 | 0.494 µM | 3.29 |
| COc1cccc(OCCCN)c1-c1cc(Nc2cnc(C#N)cn2)n[nH]1 | 7.91 | 24 | 0.00769 µM and 0.0131 µM | 15.4 | 2.07 | 13.9 | 0.00304 | 18.2 |  | 16.1 |  |  | 0.0279 µM and 0.0321 µM |  | 0.00877 µM and 0.0231 µM | 1.14 |
| O=c1[nH]c(=O)c2cc(C3CC(O)C(CO)O3)ccc2[nH]1 (stereo not given) | > 100 | > 100 | > 100 µM | > 100 | 26.8 | > 100 | > 100 | > 100 |  |  | > 100 | > 100 | > 100 µM | > 100 |  |  |
| CCCCCCCCCCC(C(O)c1ccccc1)N1CCCCC1 (stereo not given) | 1.91 | 4.35 | 2.07 µM | 6.72 | 2.32 | 5.65 | 1.87 | 3.43 |  |  | 2.02 | 4.52 | 1.24 µM | 2.84 | 1.96 µM | 4.25 |
| S=c1ssc(Oc2ccccc2)c1Cl | 21.5 | 43 | 14.5 µM | 28.9 | 18 | 45 |  |  |  |  |  |  | 19 µM | 58.8 | 3.21 µM | > 100 |
| O=C(O)c1cc(-c2ccncc2)nc2ccccc12 |  | > 100 |  | > 100 |  |  |  | > 100 |  | > 100 |  | > 100 |  | > 100 |  | > 100 |
| FC(F)(F)c1ccc(C#Cc2ccccc2C#Cc2ccccc2)cc1 | 26.2 | 60.1 | 48 µM | > 100 | > 100 | > 100 | 22.5 | 89.8 | 36.3 | > 100 |  |  | 49.7 µM | > 100 |  |  |
| COc1ccc(S(=O)(=O)Nc2cc(/C=C\c3cc(OC)c(OC)c(OC)c3)ccc2OC)cc1 |  |  | 0.341 µM | > 100 | 0.0708 | 91.4 | 0.0426 | > 100 | 0.0527 | 61.1 | 0.226 | > 100 | 0.131 µM | 7.48 | 0.195 µM | 0.681 |
| Nc1nc(N)c2c(n1)NC(c1ccc(F)cc1)C1CCc3ccccc3C1=N2 (stereo not given) | 3.86 | 17.7 | 7.45 µM | 19.8 | 11.3 | 23.8 | 2.67 | 11 | 2.52 | 15 | 10.2 | 34.6 | 3.34 µM | 17.3 |  |  |
| O=C(c1ccccc1)C(Br)C(Br)c1cccc([N+](=O)[O-])c1 (stereo not given) | 2.13 | 5.65 | 2.48 µM | 6.33 | 6.48 | 19.8 | 1.28 | 3.63 | 2 | 3.84 |  |  | 1.68 µM | 3.14 | 2.04 µM | 4.68 |
